In ChEMBL document CHEMBL1148889, “Biaryl cannabinoid mimetics--synthesis and structure-activity relationship” (Bioorg Med Chem Lett, 2007):
“And” between values parts separate entries of the source, which are not always exact repeats. Equal entries are not always repeated.

How the values were obtained:
Cannabinoid receptor 1 = Cannabinoid receptor 1 (Homo sapiens, UniProt P21554); test: Displacement of [3H]CP-55940 from cloned human CB1 receptor
Cannabinoid receptor 2 = Cannabinoid receptor 2 (Homo sapiens, UniProt P34972); test: Displacement of [3H]CP-55940 from cloned human CB2 receptor
[1] = molecular target: Cannabinoid receptor (Homo sapiens) (UniProt P34972+P21554); test: Selectivity for human CB2 receptor over human CB1 receptor; assay type: protein assay
Sequence of Cannabinoid receptor (Homo sapiens) (P21554 whole entry, looked up): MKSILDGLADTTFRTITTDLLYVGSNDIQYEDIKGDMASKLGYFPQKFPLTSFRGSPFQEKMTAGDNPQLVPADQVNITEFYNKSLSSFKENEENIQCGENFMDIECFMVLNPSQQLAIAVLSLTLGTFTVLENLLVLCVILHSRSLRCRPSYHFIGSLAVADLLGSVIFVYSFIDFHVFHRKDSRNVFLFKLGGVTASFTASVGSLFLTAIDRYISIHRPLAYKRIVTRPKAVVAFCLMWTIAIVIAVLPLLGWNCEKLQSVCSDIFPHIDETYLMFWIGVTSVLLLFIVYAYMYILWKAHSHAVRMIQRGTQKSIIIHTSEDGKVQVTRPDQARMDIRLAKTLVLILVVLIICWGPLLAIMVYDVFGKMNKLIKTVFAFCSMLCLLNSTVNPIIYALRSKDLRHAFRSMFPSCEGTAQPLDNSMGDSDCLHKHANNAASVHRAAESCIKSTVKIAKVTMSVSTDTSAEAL
Sequence of Cannabinoid receptor (Homo sapiens) (P34972 whole entry, looked up): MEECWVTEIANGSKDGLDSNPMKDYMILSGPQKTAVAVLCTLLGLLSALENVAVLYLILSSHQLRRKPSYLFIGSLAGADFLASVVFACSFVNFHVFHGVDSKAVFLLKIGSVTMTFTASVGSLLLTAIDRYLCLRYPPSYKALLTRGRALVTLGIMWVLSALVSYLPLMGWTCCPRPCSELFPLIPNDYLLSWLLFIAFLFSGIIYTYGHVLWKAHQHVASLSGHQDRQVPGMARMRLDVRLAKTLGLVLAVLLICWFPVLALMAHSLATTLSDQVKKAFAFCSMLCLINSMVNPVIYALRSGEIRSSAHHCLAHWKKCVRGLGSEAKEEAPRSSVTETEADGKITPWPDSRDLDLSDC

Sequence of Cannabinoid receptor 2 (P34972 whole entry): as the sequence (P34972 whole entry, looked up) above
Sequence of Cannabinoid receptor 1 (P21554 whole entry): as the sequence (P21554 whole entry, looked up) above

Compound	Ki (Cannabinoid receptor 1)	Ki (Cannabinoid receptor 2)	Ratio Ki [1]
CCCCCCC(C)(C)c1ccc(-c2ccc(C)c(C)c2)c(O)c1	600 nM	830 nM	0.7
Cc1cc(C)cc(-c2ccc(C(C)(C)CCCCCO)cc2O)c1	39 nM	3.6 nM	10
CCCCCCC1(c2ccc(-c3cc(C)cc(C)c3)c(O)c2)CCCC1	2.9 nM	5.5 nM	0.5
CCCCCCC(C)(C)c1ccc(-c2cc(C)ccc2C)c(O)c1	4.6 nM	6.6 nM	0.7
CCCCCCC(C)(C)c1ccc(-c2cc(C)cc(C)c2)c(CN)c1	1500 nM	380 nM	4
CCCCCCC(C)(C)c1ccc(-c2cc(C)cc(C)c2)c(COC(=O)CN2CCOCC2)c1	370 nM	0.81 nM	500
CCCCCCC(C)(C)c1ccc(-c2cc(C)cc(C)c2)c(CO)c1	360 nM	480 nM	0.8
CCCCCCC(C)(C)c1ccc(-c2cccc(C)c2C)c(O)c1	49 nM	20 nM	2
CCCCCCC(C)(C)c1ccc(-c2cccc(C(=O)O)c2)c(O)c1	> 1000 nM	> 1000 nM	
Cc1cc(C)cc(-c2ccc(C(C)(C)CCCO)cc2O)c1	1100 nM	56 nM	20
CCCCCCC1(c2ccc(-c3cc(C)cc(C)c3)c(O)c2)CC1	13 nM	55 nM	0.2
CCCCCCC(C)(C)c1ccc(-c2c(C)cccc2C)c(O)c1	1.7 nM	18 nM	0.1
CCCCCCC(C)(C)c1ccc(-c2cc(C)cc(C)c2)c(N)c1	80 nM	51 nM	2
CCCCCCC(C)(C)c1ccc(-c2cccc(OC)c2OC)c(O)c1	34 nM	7.8 nM	4
Cc1cc(C)cc(-c2ccc(C(C)(C)CO)cc2O)c1	2200 nM	600 nM	4
Cc1cc(C)cc(-c2ccc(C(C)(C)CCCCC(=O)O)cc2O)c1	> 1000 nM	> 1000 nM	
CCCCCCC1(c2ccc(-c3cc(C)cc(C)c3)c(O)c2)CCCCC1	1.8 nM	1.7 nM	1
COC(=O)CCC(C)(C)c1ccc(-c2cc(C)cc(C)c2)c(O)c1	120 nM	5.6 nM	20
CCCCCCC(C)(C)c1ccc(-c2cccc(C#N)c2)c(O)c1	27 nM	45 nM	0.6
CCCCCCC(C)(C)c1ccc(-c2cc(C)cc(C)c2)c(C(=O)O)c1	> 1000 nM	> 1000 nM	
CCCCCCC(C)(C)c1ccc(-c2cc(C)cc(C)c2)c(C(=O)NC(C)C)c1	> 1000 nM	> 1000 nM	

Compound	Ki (Cannabinoid receptor 1)	Ki (Cannabinoid receptor 2)	Ratio Ki [1]
CCCCCCC(C)(C)c1ccc(-c2ccccc2N)c(O)c1	5.2 nM	17 nM	0.3
CCCCCCC(C)(C)c1ccc(-c2cccc(N)c2)c(O)c1	15 nM	44 nM	0.3
CCCCCCC(C)(C)c1ccc(-c2cc(C)cc(C)c2)c(O)c1	2.7 nM	2.3 nM	1
CNC(=O)CCCCC(C)(C)c1ccc(-c2cc(C)cc(C)c2)c(O)c1	96 nM	39 nM	2
CCCCCCC(C)(C)c1ccc(-c2ccc(N)cc2)c(O)c1	320 nM	1000 nM	0.3
CNC(=O)CCC(C)(C)c1ccc(-c2cc(C)cc(C)c2)c(O)c1	840 nM	140 nM	6
COC(=O)CCCCC(C)(C)c1ccc(-c2cc(C)cc(C)c2)c(O)c1	24 nM	14 nM	2
CCCCCCC(C)(C)c1ccc(-c2ccccc2OC)c(O)c1	1.7 nM	1 nM	2
CCCCCCC(C)(C)c1ccc(-c2cc(C)cc(C)c2)c(C(=O)OC)c1			2 and 1
CCCCCCC(C)(C)c1ccc(-c2ccc(C#N)cc2)c(O)c1	> 1000 nM	> 1000 nM	
CCCCCCC(C)(C)c1ccc(-c2cc(C)cc(C)c2)c(OC)c1	320 nM	34 nM	9
CCCCCCC(C)(C)c1ccc(-c2cc(C)cc(C)c2)c(CN2CCOCC2)c1	3900 nM	660 nM	6
CCCCCCC(C)(C)c1ccc(-c2cc(C)cc(C)c2)c(C(N)=O)c1	370 nM	320 nM	1
CCCCCCC(C)(C)c1ccc(-c2cc(C)cc(C)c2)cc1	> 30000 nM		> 10
CNC(=O)C(C)(C)c1ccc(-c2cc(C)cc(C)c2)c(O)c1	> 1000 nM	> 1000 nM	
Cc1cc(C)cc(-c2ccc(C(C)(C)C(=O)O)cc2O)c1	> 1000 nM	> 1000 nM	
CCCCCCC(C)(C)c1ccc(-c2cccnc2)c(O)c1	23 nM	20 nM	1
CCCCCCC(C)(C)c1ccc(-c2ccc(OC)c(OC)c2)c(O)c1	1400 nM	1700 nM	0.8
CCCCCCC(C)(C)c1ccc(-c2cccc(OC)c2)c(O)c1	91 nM	580 nM	0.2
COC(=O)C(C)(C)c1ccc(-c2cc(C)cc(C)c2)c(O)c1	160 nM	16 nM	10
